Test results reported in US4962277A, “Deletion analogues of magainin peptides” (priority 1988, dated 1990).
No end group written: not given here.

Test system: Escherichia coli
Experiment: not given
Assay type: cell-based
Settings: concentration at which the reported % inhibition (greater than 80%) was found; 100% at next higher concentration if below 100%; six hours
Method: (§1) Antimicrobial assays were carried out in 96 -well tissue culture plates. Each well was incubated with a given microorganism suspended in LB medium (Escherichia coli, and Staphylococcus epidermis or YTB medium (Candida albicans). Upon the addition of the peptides or their deletion analogues, (dissolved in 1×PBS, pH 7.0) each well contained a final cell density of 1.0×10^6 colony forming units (CFU)/ml. The final peptide concentrations used were 100 μg/ml., 75.0 μg/ml, 50.0 μg/ml, 25 μg/ml, and 10 μg/ml Concentrations of up to 500 μg/ml, however, were employed against C. albicans.
(§2) Addition of peptides to the wells was defined as time zero. At six hours, the plates were placed in a Titertek Multiskan apparatus and the O.D.620 determined. The plates as well as the initial innoculum were incubated at 37° C.
(§3) Five wells per plate contained media alone. while five others contained medium plus cells. These controls were used to eliminate the possibility of media contamination while providing a measure of uninhibited growth of the microorganisms. The measurements of 1/(change in optical in density) for the wells containing either the peptides or their deletion analogues in the above-mentioned varying concentrations with the colony forming units of E. coli or S. epidermis are shown in FIGS. 1 and 2. FIG. 1 is a graph of the measurements of 1/(change in optical density) for wells containing Magainin I or Magainin II peptides or their deletion analogues and E. coli. FIG. 1a is a graph pertaining to Magainin I (indicated by X) and its deletion analogues. (The deletion analogue wherein amino acid 23 omitted was not tested). FIG. 1b is a graph pertaining to Magainin II (indicated by X) and its deletion analogues. In both graphs, Z is a control of medium plus cells.
(§4) The degree of peptide activity was determined by comparing the deletion analogs with uninhibited growth of the control cells over a six-hour period. […] As listed in Table 1, M1C is Magainin I, C-terminal carboxyl carboxy-terminated), whereas M2A, is Magainin II, C-terminal amide (amide-terminated). The letter and number code after each M1C or M2A peptide indicates the amino acid residue deleted from the particular deletion analogue of Magainin I carboxY-terminated) or Magainin II (amide-terminated).

Substance	Effective Growth Inhibition Conc., E. coli
GIGKFLHSAKKFGKAFGEIMNS-NH2 [M2A-V^17]	50 µg/mL
GIGKFLHSAKKFGKAFVEIMNS-NH2 [M2A-G^18]	10 µg/mL
GIGKFLHSAKKFGKAFVGEIMN-NH2 [M2A-S^23]	25 µg/mL
GIGKFLHSAKKFGKAFVGEIMNS-NH2 [Peptide M2A, reference compound]	25 µg/mL
GIGKFLHSAKKFGKAFVGEIMS-NH2 [M2A-N^22]	25 µg/mL
GIGKFLHSAKKFGKAFVGEINS-NH2 [M2A-M^21]	25 µg/mL
GIGKFLHSAKKFGKAFVGEMNS-NH2 [M2A-I^20]	25 µg/mL
GIGKFLHSAKKFGKAFVGIMNS-NH2 [M2A-E^19]	10 µg/mL
GIGKFLHSAKKFGKAVGEIMNS-NH2 [M2A-F^16]	100 µg/mL
GIGKFLHSAKKFGKFVGEIMNS-NH2 [M2A-A^15]	10 µg/mL
GIGKFLSAKKFGKAFVGEIMNS-NH2 [M2A-H^7]	100 µg/mL

Same assay, conditions: concentration at which the reported % inhibition (greater than 80%) was found; 100% at next higher concentration if below 100%; six hours; listed as M2A-A^9

Substance	Effective Growth Inhibition Conc., E. coli
GIGKFLHSAKKFGKFVGEIMNS-NH2 [M2A-A^15]	75 µg/mL

Same assay, conditions: concentration at which the reported % inhibition (greater than 80%) was found; 100% at next higher concentration if below 100%; six hours; listed as M2A-G^3

Substance	Effective Growth Inhibition Conc., E. coli
GIGKFLHSAKKFGKAFVEIMNS-NH2 [M2A-G^18]	100 µg/mL

Same assay, conditions: concentration at which the reported % inhibition (greater than 80%) was found; 100% at next higher concentration if below 100%; six hours; listed as M2A-G^13

Substance	Effective Growth Inhibition Conc., E. coli
GIGKFLHSAKKFGKAFVEIMNS-NH2 [M2A-G^18]	25 µg/mL

Same assay, conditions: concentration at which the reported % inhibition (greater than 80%) was found; 100% at next higher concentration if below 100%; six hours; listed as M2A-S^8

Substance	Effective Growth Inhibition Conc., E. coli
GIGKFLHSAKKFGKAFVGEIMN-NH2 [M2A-S^23]	75 µg/mL

Same assay, conditions: peptide 10 μg/ml; six hours; 1.0×10^6 CFU/ml

Substance	% Inhibit, E. coli
GIGKFLHSAKKFGKAFVEIMNS-NH2 [M2A-G^18]	94%
GIGKFLHSAKKFGKAFVGIMNS-NH2 [M2A-E^19]	92%
GIGKFLHSAKKFGKFVGEIMNS-NH2 [M2A-A^15]	95%

Same assay, conditions: peptide 25 μg/ml; six hours; 1.0×10^6 CFU/ml

Substance	% Inhibit, E. coli
GIGKFLHSAKKFGKAFVEIMNS-NH2 [M2A-G^18]	89%
GIGKFLHSAKKFGKAFVGEIMN-NH2 [M2A-S^23]	100%
GIGKFLHSAKKFGKAFVGEIMNS-NH2 [Peptide M2A, reference compound]	100%
GIGKFLHSAKKFGKAFVGEIMS-NH2 [M2A-N^22]	100%
GIGKFLHSAKKFGKAFVGEINS-NH2 [M2A-M^21]	95%
GIGKFLHSAKKFGKAFVGEMNS-NH2 [M2A-I^20]	84%

Same assay, conditions: peptide 50 μg/ml; six hours; 1.0×10^6 CFU/ml

Substance	% Inhibit, E. coli
GIGKFLHSAKKFGKAFGEIMNS-NH2 [M2A-V^17]	87%
GIGKFLHSAKKFGKAFVGEIMNS [Peptide M2-Carboxy, Magainin II, reference compound]	100%

Same assay, conditions: peptide 75 μg/ml; six hours; 1.0×10^6 CFU/ml

Substance	% Inhibit, E. coli
GIGKFLHSAKKFGKAFVGEIMN-NH2 [M2A-S^23]	90%
GIGKFLHSAKKFGKFVGEIMNS-NH2 [M2A-A^15]	82%

Same assay, conditions: peptide 100 μg/ml; six hours; 1.0×10^6 CFU/ml

Substance	% Inhibit, E. coli
GIGKFHSAKKFGKAFVGEIMNS-NH2 [M2A-L^6]	0%
GIGKFLHSAKKFGKAFVEIMNS-NH2 [M2A-G^18]	0%
GIGKFLHSAKKFGKAFVGEMNS-NH2 [M2A-I^20]	0%
GIGKFLHSAKKFGKAVGEIMNS-NH2 [M2A-F^16]	92%
GIGKFLSAKKFGKAFVGEIMNS-NH2 [M2A-H^7]	90%

Same assay, conditions: peptide 100 μg/ml; six hours; 1.0×10^6 CFU/ml; listed as M2A-F^5

Substance	% Inhibit, E. coli
GIGKFLHSAKKFGKAVGEIMNS-NH2 [M2A-F^16]	0%

Same assay, conditions: peptide 100 μg/ml; six hours; 1.0×10^6 CFU/ml; listed as M2A-F^12

Substance	% Inhibit, E. coli
GIGKFLHSAKKFGKAVGEIMNS-NH2 [M2A-F^16]	0%

Same assay, conditions: peptide 100 μg/ml; six hours; 1.0×10^6 CFU/ml; listed as M2A-G^3

Substance	% Inhibit, E. coli
GIGKFLHSAKKFGKAFVEIMNS-NH2 [M2A-G^18]	93%

Test system: E. coli
Experiment: Kinetics of microbial killing
Assay type: cell-based
Settings: peptide 25 μg/ml; E. coli 1.0×10^6 CFU/ml; 37° C.
Method: Dissolved peptide preparations of amide-terminated Magainin II, amide-terminated Magainin II with glycine (amino acid 18) deleted, and amide-terminated Magainin II with glutamic acid (amino acid 19) deleted were added to test tubes containing E. coli (1.0×10^6 CFU/ml) to a final peptide concentration of 25 μg/ml. At the time points of 15, 30, 45, and 60 minutes after the addition, indicated in FIG. 3, 10.0 µl were removed from each tube and sequentially diluted by a factor of ten four times in LB medium. The number of bacteria at each time point was determined by plating 10.0 μl of the 10^-2, 10^-3, and 10^-4 dilutions. The log of the number of bacteria from these dilutions at each time point was determined, and was plotted on the graph in FIG. 3. Two controls, one with medium alone and one with no peptides were both incubated along with the tubes containing cells and peptides. The tubes as well as the agar plates used were incubated at 37° C.

Substance	time until all E. coli cells were killed after addition of the peptide
GIGKFLHSAKKFGKAFVEIMNS-NH2 [M2A-G^18]	≤ 15 min
GIGKFLHSAKKFGKAFVGEIMNS-NH2 [Peptide M2A, reference compound]	much slower
GIGKFLHSAKKFGKAFVGIMNS-NH2 [M2A-E^19]	≤ 15 min

Test system: human red blood cells
Experiment: not given
Settings: pH 7

Substance	% Hemolysis of Human Red Blood Cells
GIGKFHSAGKFGKAFVGEIMKS [M1C-L^6]	0%
GIGKFHSAKKFGKAFVGEIMNS-NH2 [M2A-L^6]	1%
GIGKFLHSAGKFGKAFGEIMKS [M1C-V^17]	1%
GIGKFLHSAGKFGKAFVGEIKS [M1C-M^21]	1%
GIGKFLHSAGKFGKAFVGEIMK [M1C-S^23]	0%
GIGKFLHSAGKFGKAFVGEIMKS [Peptide M1C, Magainin I, reference compound]	2%
GIGKFLHSAGKFGKAFVGEMKS [M1C-I^20]	1%
GIGKFLHSAGKFGKAFVGIMKS [M1C-E^19]	1%
GIGKFLHSAKKFGKAFGEIMNS-NH2 [M2A-V^17]	0%
GIGKFLHSAKKFGKAFVGEIMNS-NH2 [Peptide M2A, reference compound]	4%
GIGKFLHSAKKFGKAFVGEIMS-NH2 [M2A-N^22]	2%
GIGKFLHSAKKFGKAFVGEINS-NH2 [M2A-M^21]	0%
GIGKFLHSAKKFGKAFVGEMNS-NH2 [M2A-I^20]	0%
GIGKFLHSAKKFGKAFVGIMNS-NH2 [M2A-E^19]	0%
GIGKFLHSAKKFGKAVGEIMNS-NH2 [M2A-F^16]	1%
GIGKFLSAGKFGKAFVGEIMKS [M1C-H^7]	0%
GIGKFLSAKKFGKAFVGEIMNS-NH2 [M2A-H^7]	0%

Test system: Staphylococcus epidermis
Experiment: Antimicrobial assay: growth inhibition in 96-well plates, O.D.620 at six hours
Assay type: cell-based
Settings: concentration at which the reported % inhibition (greater than 80%) was found, 100% at next higher concentration if below 100%
Method: as §1, §2, §3
FIG. 2 is a graph of the measurements of 1/(change in optical density) for wells containing Magainin I or Magainin II peptides or their deletion analogues and S. epidermis. FIG. 2a is a graph pertaining to Magainin I (indicated by X) and its deletion analogues. (The deletion analogue wherein amino acid 23 was deleted was not tested.) FIG. 2b is a graph pertaining to Magainin II (indicated by X) and its deletion analogues. In both graphs, Z is a control of medium plus cells. The measurements of 1/(change in optical density) as measured for the Magainin I and Magainin II peptides and their deletion analogues can be correlated to a measurement of their effectivness against E. coli and S. epidermis.
as §4

Substance	Effective Growth Inhibition Conc., S. epidermis
GIGKFLHSAKKFGKAFVEIMNS-NH2 [M2A-G^18]	10 µg/mL
GIGKFLHSAKKFGKAFVGEIMNS-NH2 [Peptide M2A, reference compound]	25 µg/mL
GIGKFLHSAKKFGKAFVGEIMS-NH2 [M2A-N^22]	75 µg/mL
GIGKFLHSAKKFGKAFVGEINS-NH2 [M2A-M^21]	75 µg/mL
GIGKFLHSAKKFGKAFVGIMNS-NH2 [M2A-E^19]	10 µg/mL
GIGKFLHSAKKFGKFVGEIMNS-NH2 [M2A-A^15]	25 µg/mL

Same assay, conditions: peptide 10 μg/ml, 1.0×10^6 CFU/ml

Substance	% Inhibit, S. epidermis
GIGKFLHSAKKFGKAFVEIMNS-NH2 [M2A-G^18]	89%
GIGKFLHSAKKFGKAFVGIMNS-NH2 [M2A-E^19]	89%

Same assay, conditions: peptide 25 μg/ml, 1.0×10^6 CFU/ml

Substance	% Inhibit, S. epidermis
GIGKFLHSAKKFGKAFVGEIMNS-NH2 [Peptide M2A, reference compound]	93%
GIGKFLHSAKKFGKFVGEIMNS-NH2 [M2A-A^15]	90%

Same assay, conditions: peptide 50 μg/ml, 1.0×10^6 CFU/ml

Substance	% Inhibit, S. epidermis
GIGKFLHSAKKFGKAFVEIMNS-NH2 [M2A-G^18]	80%

Same assay, conditions: peptide 75 μg/ml, 1.0×10^6 CFU/ml

Substance	% Inhibit, S. epidermis
GIGKFLHSAKKFGKAFVGEIMS-NH2 [M2A-N^22]	100%
GIGKFLHSAKKFGKAFVGEINS-NH2 [M2A-M^21]	90%

Same assay, conditions: peptide 100 μg/ml, 1.0×10^6 CFU/ml

Substance	% Inhibit, S. epidermis
GIGKFHSAKKFGKAFVGEIMNS-NH2 [M2A-L^6]	0%
GIGKFLHSAKKFGKAFGEIMNS-NH2 [M2A-V^17]	0%
GIGKFLHSAKKFGKAFVEIMNS-NH2 [M2A-G^18]	0%
GIGKFLHSAKKFGKAFVGEIMN-NH2 [M2A-S^23]	0%
GIGKFLHSAKKFGKAFVGEMNS-NH2 [M2A-I^20]	0%
GIGKFLHSAKKFGKAVGEIMNS-NH2 [M2A-F^16]	0%
GIGKFLHSAKKFGKFVGEIMNS-NH2 [M2A-A^15]	0%
GIGKFLSAKKFGKAFVGEIMNS-NH2 [M2A-H^7]	0%
